The compounds below were run against Plasminogen activator inhibitor 1 (Homo sapiens, UniProt P05121) (assay: Inhibition of human PAI1 using tissue type plasminogen activator substrate by chromogenic absorbance at 405 nm).
Plasminogen activator inhibitor 1, sequence (P05121 whole entry): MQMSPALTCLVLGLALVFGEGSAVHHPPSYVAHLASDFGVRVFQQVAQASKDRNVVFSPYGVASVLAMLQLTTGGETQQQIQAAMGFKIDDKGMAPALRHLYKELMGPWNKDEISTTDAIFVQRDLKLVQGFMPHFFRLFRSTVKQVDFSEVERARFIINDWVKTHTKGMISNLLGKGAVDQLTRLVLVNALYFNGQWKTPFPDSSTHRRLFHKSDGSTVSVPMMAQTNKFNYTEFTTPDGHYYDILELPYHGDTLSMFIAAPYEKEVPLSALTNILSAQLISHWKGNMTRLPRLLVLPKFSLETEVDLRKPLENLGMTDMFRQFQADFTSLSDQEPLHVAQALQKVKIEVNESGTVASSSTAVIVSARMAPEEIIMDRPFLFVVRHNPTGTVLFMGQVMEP
`CC(C)C[C@@H]1C[C@@]2(CC[C@@H]3C[C@H]2C3(C)C)Oc2c(C=O)c(O)c(C=O)c(O)c21` [ROBUSTADIAL A] showed an IC50 of 152 µM.
Work on `CC(C)C[C@@H]1c2c(O)c(C=O)c(O)c(C=O)c2O[C@@H](c2c(O)c(C=O)c(O)c(C=O)c2O)[C@@H]1C(C)C` [SIDEROXYLONAL A] yielded an IC50 of 3.3 µM.
`CC(C)C[C@@H]1c2c(O)c(C=O)c(O)c(C=O)c2O[C@@H](c2c(O)c(C=O)c(O)c(C=O)c2O)[C@H]1C(C)C` [SIDEROXYLONAL B] showed an IC50 of 5.3 µM.
Work on `CC(C)C[C@@H]1c2c(O)c(C=O)c(O)c(C=O)c2O[C@]2(C)C=C[C@@H](C(C)C)C[C@H]12` [EUGLOBAL IA2] yielded an IC50 of 138 µM.
`CC(C)CC(=O)c1c(O)c(C=O)c2c(c1O)C[C@H]1C[C@H](C(C)C)C=C[C@@]1(C)O2` [EUGLOBAL IIC] was tested, and the IC50 was 700 µM.
With `CC(C)C[C@H]1c2c(O)c(C=O)c(O)c(C=O)c2O[C@@H](c2c(O)c(C=O)c(O)c(C=O)c2O)[C@@H]1C(C)C` [SIDEROXYLONAL C] the IC50 was 4.7 µM.

Reference: ChEMBL document CHEMBL1158023, “Sideroxylonal C, a new inhibitor of human plasminogen activator inhibitor type-1, from the flowers of Eucalyptus albens” (J Nat Prod, 1999)
